Measured values: patent US20250066358A1, “Inhibitors of Menin-MLL Interaction” (Bala Therapeutics, Inc., priority 2021, published 2025)

Columns and labels:
[1] = test system: MOLM-13; assay: MOLM-13 Cellular Growth Inhibition Assay (CellTiter-Glo); format: cell-based; details: Homo sapiens, 168 h, MOLM-13 cells, 7 days of incubation
Procedure: (§1) HEK293 (Institute of Cytology Russian Academy of Science), MV4-11 (ATCC, CRL-9591), MOLM-13 (AcceGen, ABC-TC517S) were seeded at a density of 500 cells per well (HEK293) and 2000 cells per well (MV4-11, MOLM-13) in a 384-well clear bottom plate (Greiner Cat #781090) in 45 μl total volume of DMEM (PanEco, Cat #C420, Russia) or RPMI (PanEco, Cat #C330, Russia) with 10% FBS(HyClone Cat #SV30160.03). HEK293 were allowed to adhere overnight at 37° C., 5% CO2. 500× compounds solutions in DMSO (Sigma Cat #D2650) were prepared into Cmpnds plate (Diamond Well Plate, Axigen, Cat #P-384-120 SQ-C—S) and DMSO only control was included. 1 μl of 500× compounds (Cmpnds plate) was added to 49 μl of culture medium into Dilution plate (Diamond Well Plate, Axigen, Cat #P-384-120 SQ-C—S), mixed and then 5 μl of 10× compounds solutions were transferred to cells followed by centrifugation at 100 g for 1 min. Final DMSO concentration was 0.2%. After 3 days of incubation, 10 μl of 1× compounds were added to cells. After 7 days of incubation, 12 μl of CellTiter-Glo (Promega, CAT #G7572) were added to the cells, plate was centrifuged at 100 g for 1 min and luminescence signal was measured using Microplate Reader (CLARIOStar).

[2] = target: T1, recombinant MEN1 protein and fluorescein-labeled MLL4-43 peptide (Homo sapiens, UniProt O00255); assay: Primary fluorescence polarization assay of MEN1 / MLL4-43 interaction inhibition; format: binding; details: MEN1 10 nM, MLL4-43 0.5 nM, 1 hour at room temperature
T1 construct: purchased Creativebiomart MEN1-35H
T1 sequence (O00255 1-610): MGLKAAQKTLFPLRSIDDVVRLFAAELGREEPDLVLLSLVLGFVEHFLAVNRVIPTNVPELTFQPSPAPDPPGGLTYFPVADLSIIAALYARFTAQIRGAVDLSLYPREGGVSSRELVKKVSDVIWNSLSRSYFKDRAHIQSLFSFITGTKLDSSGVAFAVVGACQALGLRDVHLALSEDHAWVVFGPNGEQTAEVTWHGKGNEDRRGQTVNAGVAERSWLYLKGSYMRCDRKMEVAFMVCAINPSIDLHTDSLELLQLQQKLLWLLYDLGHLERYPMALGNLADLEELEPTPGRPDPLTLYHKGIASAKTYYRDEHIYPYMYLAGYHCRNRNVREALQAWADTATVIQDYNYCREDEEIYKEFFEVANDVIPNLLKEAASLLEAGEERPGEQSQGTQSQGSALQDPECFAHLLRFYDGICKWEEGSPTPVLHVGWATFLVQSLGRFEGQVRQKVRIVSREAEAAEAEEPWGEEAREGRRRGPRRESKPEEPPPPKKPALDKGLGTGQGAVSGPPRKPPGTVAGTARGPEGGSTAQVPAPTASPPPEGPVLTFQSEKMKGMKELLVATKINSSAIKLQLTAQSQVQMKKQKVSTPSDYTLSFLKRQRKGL
Procedure: Compound activity was determined using recombinant MEN1 protein (Creativebiomart, Cat #MEN1-35H) and a custom fluorescein-labeled MLL4-43 peptide (Eton Bioscience Inc.). Interaction between MEN1 and MLL4-43 in the presence of compounds was determined by fluorescence polarization assay using a Microplate Reader ClarioStar Plus. The reaction was carried out in assay buffer (50 mM TRIS-HCl PH 7.4-7.6, 50 mM NaCl, 1 mM DTT, 0.1 mg/ml BSA). The compounds were dispensed on a 384 well Diamond Well Plate (Axigen, Cat #P-384-120 SQ-C—S) using the Biomek FX liquid handling system at 100× solutions of compounds in DMSO. 2× MEN1 mix (final concentration of MEN1 10 nM) was prepared in Assay buffer and 10 μl of mixture per well was added into 384w white Reaction plate with NBS(Corning, Cat #4513). 10 μl of Assay buffer w/o MENI was used for negative control. Plates were centrifuged for 1 min at 100 g. Next step the Compounds were added to Reaction plate using Biomek station via following steps: 3 μl of 100× compounds (in DMSO) were mixed thoroughly with 27 μl Assay Buffer, then 2 μl of this mixture was added to Reaction plate with 10 μl of MENI mix. Plates were centrifuged for 1 min at 100 g and incubated for 20 min at room temperature. Next 8 μL of MLL4-43 peptide per well was added to final concentration of MLL 0.5 nM. Plates were incubated for 1 hour at room temperature. Then fluorescence polarization was measured using Microplate Reader.

[3] = HEK293 Cellular Growth Inhibition Assay (CellTiter-Glo); format: cell-based; details: human, HEK293 cells, 7 days of incubation
Procedure: as §1

[4] = test system: MV4-11; assay: MV4-11 Cellular Growth Inhibition Assay (CellTiter-Glo); format: cell-based; details: Homo sapiens, 168 h, MV4-11 cells, 7 days of incubation
Procedure: as §1

| EC50 [2] [nM] | Compound | CC50 [1] [µM] | CC50 at 7 days [3] [µM] | CC50 [4] [µM] |
| --- | --- | --- | --- | --- |
| 500 to 1000 | FC(F)(F)Cc1ccc2ncnc(N3CC4(CCN(Cc5ccc6[nH]ccc6c5)CC4)C3)c2c1 [Compound 90, 4-(7-((1H-indol-5-yl)methyl)-2,7-diazaspiro[3.5]nonan-2-yl)-6-(2,2,2-trifluoroethyl)quinazoline] | 5 to 10 | 5 to 15 | 2.5 to 5 |
| 1000 to 5000 | CCS(=O)(=O)Nc1ccc(CN2CCC3(CC2)CN(c2ncnc4ccc(CCc5ccncc5)cc24)C3)cc1 [Compound 49, N-(4-((2-(6-(2-(pyridin-4-yl)ethyl)quinazolin-4-yl)-2,7-diazaspiro[3.5]nonan-7-yl)methyl)phenyl)ethanesulfonamide] | 10 to 20 | 30 to 50 | 5 to 10 |
| 1000 to 5000 | CCS(=O)(=O)Nc1ccc(CN2CCC(Nc3ncnc4ccc(CC(F)(F)F)cc34)CC2)cc1 [Compound 36, N-(4-((4-((6-(2,2,2-trifluoroethyl)quinazolin-4-yl)amino)piperidin-1-yl)methyl)phenyl)ethanesulfonamide] | 5 to 10 | 15 to 30 | 5 to 10 |
| > 5000 | CCS(=O)(=O)Nc1ccc(CN2CCC3(CC2)CN(c2ncnc4cc(CC(F)(F)F)ccc24)C3)cc1 [Compound 8, N-(4-((2-(7-(2,2,2-trifluoroethyl)quinazolin-4-yl)-2,7-diazaspiro[3.5]nonan-7-yl)methyl)phenyl)ethanesulfonamide] | 10 to 20 | 15 to 30 | 5 to 10 |
| > 5000 | CCS(=O)(=O)N[C@H]1CC[C@H](Cn2cc(CNc3ncnc4ccc(CC(F)(F)F)cc34)nn2)CC1 [Compound 69, N-((1R,4R)-4-((4-(((6-(2,2,2-trifluoroethyl)quinazolin-4-yl)amino)methyl)-1H-1,2,3-triazol-1-yl)methyl)cyclohexyl)ethanesulfonamide] | 5 to 10 | 30 to 50 | > 10 |
| > 5000 | CCS(=O)(=O)Nc1ccc(CN2CCC3(CC2)CN(c2ncnc4ccc(CC(F)(F)F)cc24)C3)cc1OCC(C)N1CCN(S(C)(=O)=O)CC1 (racemic) [Compound 70, rac-(R)-N-(2-(2-(4-(methylsulfonyl)piperazin-1-yl)propoxy)-4-((2-(6-(2,2,2-trifluoroethyl)quinazolin-4-yl)-2,7-diazaspiro[3.5]nonan-7-yl)methyl)phenyl)ethanesulfonamide] | 5 to 10 | 15 to 30 | 2.5 to 5 |
| ≤ 75 | FC(F)(F)Cc1ccc2ncnc(N3CC4(CCN(Cc5cccc6[nH]ccc56)CC4)C3)c2c1 [Compound 83, 4-(7-((1H-indol-4-yl)methyl)-2,7-diazaspiro[3.5]nonan-2-yl)-6-(2,2,2-trifluoroethyl)quinazoline] | 5 to 10 | 5 to 15 | 1 to 2.5 |
| 500 to 1000 | CCS(=O)(=O)N[C@H]1CC[C@H](CN2CCC3(CC2)CN(c2ncnc4ccc(CCc5ccccc5)cc24)C3)CC1 [Compound 51, N-((1R,4R)-4-((2-(6-phenethylquinazolin-4-yl)-2,7-diazaspiro[3.5]nonan-7-yl)methyl)cyclohexyl)ethanesulfonamide] | 5 to 10 | 5 to 15 | 2.5 to 5 |
| 75 to 500 | CCS(=O)(=O)N[C@H]1CC[C@H](CN2CCC3(CC2)CN(c2ncnc4ccc(CCc5cccc(F)c5)cc24)C3)CC1 [Compound 61, N-((1R,4R)-4-((2-(6-(3-fluorophenethyl)quinazolin-4-yl)-2,7-diazaspiro[3.5]nonan-7-yl)methyl)cyclohexyl)ethanesulfonamide] | 1 to 5 | 5 to 15 | 1 to 2.5 |
| 1000 to 5000 | Nc1ccc(CN2CCC3(CC2)CN(c2ncnc4ccc(CC(F)(F)F)cc24)C3)cc1C(=O)NCCN1CCOCC1 [Compound 91, 2-amino-N-(2-morpholinoethyl)-5-((2-(6-(2,2,2-trifluoroethyl)quinazolin-4-yl)-2,7-diazaspiro[3.5]nonan-7-yl)methyl)benzamide] | 10 to 20 | 5 to 15 | 2.5 to 5 |
| ≤ 75 | CCS(=O)(=O)Nc1ccc(CN2CCC3(CC2)CN(c2ncnc4ccc(CC(F)(F)F)cc24)C3)cc1 [Compound 7, N-(4-((2-(6-(2,2,2-trifluoroethyl)quinazolin-4-yl)-2,7-diazaspiro[3.5]nonan-7-yl)methyl)phenyl)ethanesulfonamide] | 1 to 5 | 5 to 15 | 1 to 2.5 |
| 500 to 1000 | CCS(=O)(=O)N[C@H]1CC[C@H](CN2CCC3(CC2)CCN(c2ncnc4ccc(CC(F)(F)F)cc24)CC3)CC1 [Compound 3, N-((1R,4R)-4-((9-(6-(2,2,2-trifluoroethyl)quinazolin-4-yl)-3,9-diazaspiro[5.5]undecan-3-yl)methyl)cyclohexyl)ethanesulfonamide] | 10 to 20 | 5 to 15 | 5 to 10 |
| 500 to 1000 | CCS(=O)(=O)N[C@H]1CC[C@H](CN2CCC3(CC2)CN(c2ncnc4ccc(CCc5cccnc5)cc24)C3)CC1 [Compound 56, N-((1R,4R)-4-((2-(6-(2-(pyridin-3-yl)ethyl)quinazolin-4-yl)-2,7-diazaspiro[3.5]nonan-7-yl)methyl)cyclohexyl)ethanesulfonamide] | 5 to 10 | 15 to 30 | 5 to 10 |
| 1000 to 5000 | CCNS(=O)(=O)c1ccc(CN2CC3(CCN(c4ncnc5ccc(CC(F)(F)F)cc45)CC3)C2)cc1 [Compound 45, N-ethyl-4-((7-(6-(2,2,2-trifluoroethyl)quinazolin-4-yl)-2,7-diazaspiro[3.5]nonan-2-yl)methyl)benzenesulfonamide] | 5 to 10 | 15 to 30 | 5 to 10 |
| ≤ 75 | FC(F)(F)Cc1ccc2ncnc(N3CC4(CCN(Cc5ccc6cc[nH]c6c5)CC4)C3)c2c1 [Compound 89, 4-(7-((1H-indol-6-yl)methyl)-2,7-diazaspiro[3.5]nonan-2-yl)-6-(2,2,2-trifluoroethyl)quinazoline] | 1 to 5 | ≤ 5 | ≤ 1 |
| > 5000 | CCS(=O)(=O)N[C@H]1CC[C@H](CN2CCC3(CC2)CN(c2ncnc4ccc(C#Cc5ccccc5)cc24)C3)CC1 [Compound 53, N-((1R,4R)-4-((2-(6-(phenylethynyl)quinazolin-4-yl)-2,7-diazaspiro[3.5]nonan-7-yl)methyl)cyclohexyl)ethanesulfonamide] | 5 to 10 | ≤ 5 | 2.5 to 5 |
